Assay results taken from article PMC5893132, “Selective inhibition of histamine-evoked Ca^2+ signals by compartmentalized cAMP in human bronchial airway smooth muscle cells” (Cell Calcium, 2018).
Structures can show the parent of a compound that is named as a salt.

How the values were obtained:
Type in all cases: cell-based, human
[1] = tested on: intracellular cAMP in hBASMCs; assay: Intracellular cAMP in hBASMCs by [3H]-adenine labeling; details: isoproterenol 10 μM, sustained incubation; [3H]-adenine labeling
Experimental: hBASMCs in 24-well plates (50,000 cells per well) were grown to confluence. The medium was then replaced with serum-free SMGM-2, and after 24 h this was supplemented with [^3H]-adenine (1 μCi per well, 18.4 Ci·mmol^−1). After 2 h at 37 °C in humidified air with 5% CO2, the medium was removed, and the cells were washed twice with HBS. The cells were stimulated at 20 °C in HBS. Incubations were terminated by removal of the medium, addition of ice-cold trichloroacetic acid (5%, 1 mL) and rapid freezing. This protocol ensured that only intracellular [^3H]-cAMP was detected. [^3H]-adenine nucleotides were separated by column chromatography, and the activity was determined by liquid scintillation counting using Ultra-gold scintillant. Results are presented as [^3H]-cAMP activity as a percentage of the sum of the activities of the fractions containing [^3H]-cAMP, [^3H]-ATP, [^3H]-ADP and [^3H]-AMP; henceforth, reported as [^3H]-cAMP (%).

[2] = tested on: intracellular Ca^2+ stores of hBASMCs; assay: Ca2+ content of intracellular stores, by ionomycin in Ca2+-free HBS; details: isoproterenol, forskolin 10 μM, 5 min, 2-APB 5 min, higher concentrations needed than for inhibition of GPCR-evoked signals
[3] = tested on: histamine-evoked Ca^2+ signals in hBASMCs; assay: Histamine-evoked Ca2+ signals in populations of fluo-4-loaded hBASMCs; details: HBSS
Experimental: Two methods were used to measure [Ca^2+]i in populations of hBASMCs. For measurements using a FlexStation III plate-reader (Molecular Devices, Sunnyvale, CA, USA), hBASMCs were seeded into 96-well plates (10^4 cells per well). After about 4 days, when the cells were confluent, the medium was replaced with SMGM-2 without serum or growth factor supplements, and the cells were used after a further 24 h. This period in serum-free medium increased by about 2-fold the amplitude of the increases in [Ca^2+]i evoked by histamine (results not shown). Cells were washed with HEPES-buffered saline (HBS: 135 mM NaCl, 5.9 mM KCl, 1.2 mM MgCl2, 1.5 mM CaCl2, 11.6 mM HEPES, 11.5 mM D-glucose, pH 7.3), and loaded with fluo-4 by incubation with fluo-4-AM (2 μM) in HBS (100 μL per well) containing pluronic F127 (0.02%, v/v) and probenecid (2.5 mM). After 1 h at 20 °C, the medium was replaced with HBS (100 μL per well) containing probenecid (2.5 mM). After a further incubation at 20 °C for 1 h, the medium was replaced with HBS (60–80 μL per well) or nominally Ca^2+-free HBS, and the cells were used immediately for experiments at 20 °C. In some experiments, BAPTA (2.5 mM) was added to HBS during the recording; this reduced the free [Ca^2+] of the HBS to ∼120 nM without affecting the pH. Drug additions (20 μL at 4 or 5 times the final concentration) were added automatically. Fluorescence from fluo-4 (excitation 485 nm, emission 525 nm) was recorded at 1.44-s intervals using Softmax Pro 5.4 (Molecular Devices). Fluorescence was calibrated to [Ca^2+]i from: [Ca^2+]i=KDCa×(F−Fmin/Fmax−F) where, KDCa is the equilibrium dissociation constant of fluo-4 for Ca^2+ (345 nM), F is the recorded fluorescence, and Fmin and Fmax are the fluorescence values recorded after addition of triton-X-100 (0.1%, v/v) with either BAPTA (10 mM, Fmin) or CaCl2 (10 mM, Fmax). Although treatment with triton-X-100 releases fluo-4 from cells into the medium, the fluo-4 fluorescence is captured with the same efficiency whether it is trapped within cells or dispersed within the small volume of the wells (unpublished observations). Fmax was determined for each well at the end of an experiment, and the average value was used for each column of 8 wells. Fmin was determined from parallel wells on each plate.
For measurements of [Ca^2+]i using an FDSS 7000 FLIPR (Hamamatsu), hBASMCs were seeded into 384-well plates (8000 cells per well) in 20 μL of SMGM-2 containing 5% serum. After 24 h, the medium was replaced with 15 μL of serum-free SMGM-2, and after a further 6 h the cells were loaded with Ca^2+ indicator by addition of FLIPR calcium 4 assay kit (Molecular Devices) supplemented with probenecid (2.5 mM). The exact composition of this ‘no-wash’ indicator kit is not disclosed by the manufacturer, but it contains fluo-4-AM and components that reduce background fluorescence. The manufacture’s stock solution was diluted 10-fold into HBSS containing BSA (0.1%, w/v) and HEPES (20 mM); 5 μL of this solution was then added to each well (containing 15 μL of serum-free SMGM-2). After 2 h at 37 °C in humidified air containing 5% CO2, the plate was used for experiments at 20 °C. Most additions (5 μL) were prepared in HBSS supplemented with HEPES (20 mM) and BSA (0.1%, w/v). For more prolonged incubations, drugs were diluted in the initial loading medium (to avoid changes in dye-loading during the ‘no wash’ protocol). Fluorescence signals (excitation at 480 nm, emission at 540 nm) were calibrated to [Ca^2+]i after measurement of Fmin and Fmax uniquely for each well, using a KDCa = 345 nM.
All concentration-effect relationships were determined by addition of different drug concentrations to individual wells in the same multi-well plate, rather than by sequential additions to the same well. […]

With `CC(C)NC[C@H](O)c1ccc(O)c(O)c1` [isoproterenol, (−)-isoproterenol hydrochloride] as the compound, how does the “stimulated cAMP concentration after 30 min relative to after 1 min” value [1] read?
Its value is 2.8 fold.

What about the “effect on the Ca2+ content of the intracellular stores” value [2] of the same compound?
Its value is “Neither isoproterenol nor forskolin (10 μM, 5 min) affected”.

And the IC50 ([3]; Homo sapiens, added 5 min before histamine 10 μM, n = 4, read-out: pIC50 for inhibition of histamine-evoked Ca2+ signals (converted))?
Its IC50 is 8.13 nM.

What about the “maximal amplitude of the peak increase in [Ca2+]i evoked by histamine after pre-treatment” value ([3]; after isoproterenol 10 μM, 5 min, n = 7, control 242 ± 15 nM) of the same compound?
The value was 168 ± 19 nM.
